As a reminder, the IC50 is the concentration that gives 50% inhibition. Broadly, the EC50 is the concentration that produces a half-maximal response.

Structures are written as SMILES.

HIF-2α HIS TAG-PASB Domain, sequence (Q99814 whole entry, looked up, the tested form may be a part): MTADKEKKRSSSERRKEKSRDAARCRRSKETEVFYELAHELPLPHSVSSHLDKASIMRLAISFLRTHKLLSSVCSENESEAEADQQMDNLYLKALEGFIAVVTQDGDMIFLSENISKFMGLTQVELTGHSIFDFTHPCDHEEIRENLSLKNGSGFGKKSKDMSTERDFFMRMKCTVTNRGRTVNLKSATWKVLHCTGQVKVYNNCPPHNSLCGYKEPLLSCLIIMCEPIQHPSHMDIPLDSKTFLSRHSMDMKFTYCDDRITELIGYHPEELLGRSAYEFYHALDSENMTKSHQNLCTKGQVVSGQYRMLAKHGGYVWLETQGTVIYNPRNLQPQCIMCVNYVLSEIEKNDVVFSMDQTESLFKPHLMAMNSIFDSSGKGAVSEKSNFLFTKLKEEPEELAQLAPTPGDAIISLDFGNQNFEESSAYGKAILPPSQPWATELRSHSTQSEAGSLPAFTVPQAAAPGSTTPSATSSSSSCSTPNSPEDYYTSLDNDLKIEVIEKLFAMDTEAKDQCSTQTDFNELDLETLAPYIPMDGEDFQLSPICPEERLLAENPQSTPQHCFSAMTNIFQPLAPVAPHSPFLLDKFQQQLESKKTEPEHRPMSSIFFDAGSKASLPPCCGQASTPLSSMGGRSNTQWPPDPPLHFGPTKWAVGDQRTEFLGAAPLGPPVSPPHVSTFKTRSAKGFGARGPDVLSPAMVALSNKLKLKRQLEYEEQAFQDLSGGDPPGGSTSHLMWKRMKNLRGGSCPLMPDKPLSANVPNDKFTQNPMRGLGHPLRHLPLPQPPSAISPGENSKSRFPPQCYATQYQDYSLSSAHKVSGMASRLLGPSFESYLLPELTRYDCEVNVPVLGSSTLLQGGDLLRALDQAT

The target of one assay is HIF-2α HIS TAG-PASB Domain (Homo sapiens, UniProt Q99814). As to the kind of experiment: biochemical. The format is binding. Conditions: displacement of Compound 120 probe; mean; read-out: Mean SPA IC50. From the text:
The term “scintillation proximity assay” (SPA) refers to a homogenous assay in which light is emitted when a radiolabeled ligand is brought into close proximity to a radiosensitive bead. The assay typically contains a target protein that contains a tag (e.g., His Tag, Glutathione S-transferase Tag). The tag on the protein is used to bind the target protein to the scintillation bead. Radiolabeled ligand (e.g., labeled with tritium) that binds to the protein is now in close proximity to the bead, and when the raidolabel (e.g., tritium) decays, the high energy particle hits the bead resulting in the emission of light that is detected by a detector, such as photomultiplier tube or CCD camera. When unlabeled ligands or compounds that bind to the protein are used in the assay, they displace the radiolabeled ligand, resulting in loss of signal.
The total assay volume was about 100 μL in the following configuration: 2-μL compound in DMSO, 88 μL buffer with protein and probe and 10 μL of SPA beads. […] To each compound, 88 μL of the buffer solution was then added. […] The percent inhibition was determined and IC50 values were calculated using the Dotmatics system based on the following equation: % inhibition=[(high control−sample)/(high control−low control)]×100.
Turning to `NC1c2c(ccc(Oc3cc(F)cc(F)c3)c2Br)S(=O)(=O)C1(F)F` (stereo not drawn) [Compound 30, 3-Amino-4-bromo-5-(3,5-difluorophenoxy)-2,2-difluoro-2,3-dihydrobenzo[b]thiophene 1,1-dioxide], the half-maximal inhibitory concentration (IC50) was less than 5 nM.

For `Cc1cncc(Oc2ccc3c(c2Br)[C@@H](O)C(F)(F)S3(=O)=O)c1` [Compound 82, (R)-4-bromo-2,2-difluoro-3-hydroxy-5-((5-methylpyridin-3-yl)oxy)-2,3-dihydrobenzo[b]thiophene 1,1-dioxide], the IC50 amounted to 2930 nM. Same read-out and setting: the result for `O=S1(=O)c2ccc(Oc3cncc(Cl)c3)c(Cl)c2[C@@H](O)C1(F)F` [Compound 86, (R)-4-Chloro-5-((5-chloropyridin-3-yl)oxy)-2,2-difluoro-3-hydroxy-2,3-dihydrobenzo[b]thiophene 1,1-dioxide] reads 380 nM; that for `N#Cc1c(Oc2cc(F)cc(F)c2)ccc2c1C(O)(C(F)(F)F)CS2(=O)=O` (stereo not drawn) [Compound 102, 5-(3,5-Difluorophenoxy)-3-hydroxy-3-(trifluoromethyl)-2,3-dihydrobenzo[b]thiophene-4-carbonitrile 1,1-dioxide], 4600 nM. The same measure, in the same setting: the figure for `N#Cc1cc(F)cc(Oc2ccc3c(c2C#N)C(O)(C(F)(F)F)CS3(=O)=O)c1` (stereo not drawn) [Compound 104, 5-(3-Cyano-5-fluorophenoxy)-3-hydroxy-3-(trifluoromethyl)-2,3-dihydrobenzo[b]thiophene-4-carbonitrile 1,1-dioxide] is 6300 nM; for `CC1(O)c2c(ccc(OCc3ccccc3)c2C#N)S(=O)(=O)C1(F)F` (stereo not drawn) [Compound 113, 5-(Benzyloxy)-2,2-difluoro-3-hydroxy-3-methyl-2,3-dihydrobenzo[b]thiophene-4-carbonitrile 1,1-dioxide] it is 16700 nM; for `C=CC1(O)c2c(ccc(Oc3cc(F)cc(C#N)c3)c2C#N)S(=O)(=O)C1(F)F` (stereo not drawn) [Compound 114, 5-(3-Cyano-5-fluorophenoxy)-2,2-difluoro-3-hydroxy-3-vinyl-2,3-dihydrobenzo[b]thiophene-4-carbonitrile 1,1-dioxide] it is greater than 100000 nM.

On to `CC1(O)c2c(ccc(OC3CC(F)(F)C3)c2C#N)S(=O)(=O)C1(F)F` (stereo not drawn) [Compound 115, 5-(3,3-Difluorocyclobutoxy)-2,2-difluoro-3-hydroxy-3-methyl-2,3-dihydrobenzo[b]thiophene-4-carbonitrile 1,1-dioxide], for which the concentration for half-maximal inhibition (IC50) was determined as 6700 nM.

The same assay, now with this note: unnumbered compounds listed by structure and name; read-out: IC50 value in SPA.
As for `N=S1(=O)CC(O)c2c1ccc(Oc1cc(F)cc(F)c1)c2Br` (stereo not drawn) [[4-bromo-5-(3,5-difluorophenoxy)-3-hydroxy-1-imino-2,3-dihydro-1λ^4-benzo[b]thiophene 1-oxide], the IC50 was greater than 100000 nM. With `N#CN=S1(=O)C[C@H](O)c2c1ccc(Oc1cc(F)cc(F)c1)c2Cl` (stereo partly drawn) [[(3R)-4-chloro-5-(3,5-difluorophenoxy)-3-hydroxy-1-oxo-2,3-dihydrobenzothiophen-1-ylidene]cyanamide], the IC50 was in the range of 25000 to 100000 nM.

Another assay has as its system 786-O-Hif-Luc cells. As to the kind of experiment: Luciferase Assay (HIF responsive element reporter). The format is cell-based. The conditions noted are these: 786-O-Hif-Luc cells, about 24 hours; read-out: Mean Luciferease EC50. As for the experimental part: A pool of infected cells were then selected against 2 μg/mL of puromycin (P8833, Sigma) for 10 days followed by limited dilution to select single clones.
Each concentration was tested in triplicate. After about 24 hours, luciferase activity was determined using ONE-Glo Luciferase Assay Reagent (E6110, Promega) following the manufacturer's recommended procedure. EC50 were calculated by using Dotmatics software.
As for `O=S1(=O)c2ccc(Oc3cc(F)cc(Cl)c3)c(C(F)F)c2C(O)C1(F)F` (stereo not drawn) [Compound 18, 5-(3-Chloro-5-fluorophenoxy)-4-(difluoromethyl)-2,2-difluoro-3-hydroxy-2,3-dihydrobenzo[b]thiophene 1,1-dioxide], the EC50 came to 17 nM. The same measure, in the same setting: the figure for `N#Cc1cc(F)cc(Oc2ccc3c(c2C(F)F)C(O)C(F)(F)S3(=O)=O)c1` (stereo not drawn) [Compound 29, 3-((4-(Difluoromethyl)-2,2-difluoro-3-hydroxy-1,1-dioxido-2,3-dihydrobenzo[b]thiophen-5-yl)oxy)-5-fluorobenzonitrile] is 4 nM. Consider `NC1c2c(ccc(Oc3cc(F)cc(F)c3)c2Br)S(=O)(=O)C1(F)F` (stereo not drawn) [Compound 30, 3-Amino-4-bromo-5-(3,5-difluorophenoxy)-2,2-difluoro-2,3-dihydrobenzo[b]thiophene 1,1-dioxide], for which the half-maximal effective concentration (EC50) was 1700 nM. In the case of `N=S1(=O)c2ccc(Oc3cc(F)cc(F)c3)c(Br)c2C(O)C1(F)F` (stereo not drawn) [Compound 32, 4-bromo-5-(3,5-difluorophenoxy)-2,2-difluoro-3-hydroxy-1-imino-2,3-dihydro-1H-1λ^4-benzo[b]thiophene 1-oxide], the EC50 turned out to be 290 nM. The same measure, in the same setting: the result for `[2H]C1(O)c2c(ccc(Oc3cc(F)cc(C#N)c3)c2C(F)F)S(=O)(=O)C1(F)F` (stereo not drawn) [Compound 40, 3-((4-(Difluoromethyl)-2,2-difluoro-3-hydroxy-1,1-dioxido-2,3-dihydrobenzo[b]thiophen-5-yl-3-d)oxy)-5-fluorobenzonitrile] reads 12 nM; that for `N#Cc1cc(F)cc(Oc2ccc3c(c2C(F)F)[C@@H](N)C(F)(F)S3(=O)=O)c1` [Compound 41, (R)-3-((3-Amino-4-(difluoromethyl)-2,2-difluoro-1,1-dioxido-2,3-dihydrobenzo[b]thiophen-5-yl)oxy)-5-fluorobenzonitrile], 140 nM.

The same assay, now with this note: 24 h, 786-O-Hif-Luc cells, about 24 hours; read-out: Mean Luciferease EC50.
For `O=S1(=O)CC(O)c2c1ccc(Oc1cc(F)cc(Cl)c1)c2C(F)F` (stereo not drawn) [Compound 15, 5-(3-Chloro-5-fluorophenoxy)-4-(difluoromethyl)-3-hydroxy-2,3-dihydrobenzo[b]thiophene 1,1-dioxide], the concentration giving a half-maximal response (EC50) came out at 730 nM. Still for that read-out and setting: the figure for `O=S1(=O)CC(O)c2c1ccc(Oc1cc(F)cc(F)c1)c2C(F)F` (stereo not drawn) [Compound 24, 4-(Difluoromethyl)-5-(3,5-difluorophenoxy)-3-hydroxy-2,3-dihydrobenzo[b]thiophene 1,1-dioxide] is 720 nM; for `N#Cc1c(Oc2cc(F)cc(F)c2)ccc2c1C(O)C(F)S2(=O)=O` (stereo not drawn) [Compound 44, 5-(3,5-Difluorophenoxy)-2-fluoro-3-hydroxy-2,3-dihydrobenzo[b]thiophene-4-carbonitrile 1,1-dioxide] it is 790 nM; for `COc1cc(F)cc(Oc2ccc3c(c2Br)[C@@H](O)C(F)(F)S3(=O)=O)c1` [Compound 80, (R)-4-Bromo-2,2-difluoro-5-(3-fluoro-5-methoxyphenoxy)-3-hydroxy-2,3-dihydrobenzo[b]thiophene 1,1-dioxide] it is 410 nM.

With `N#Cc1cccc(Oc2ccc3c(c2Br)[C@@H](O)C(F)(F)S3(=O)=O)c1` [Compound 84, (R)-3-((4-bromo-2,2-difluoro-3-hydroxy-1,1-dioxido-2,3-dihydrobenzo[b]thiophen-5-yl)oxy)benzonitrile], the 50% effective concentration (EC50) came out at 33 nM. Still for that read-out and setting: the figure for `N#Cc1cc(F)cc(Oc2ccc3c(c2F)C(O)C(F)(F)S3(=O)=O)c1` (stereo not drawn) [Compound 88, 3-Fluoro-5-((2,2,4-trifluoro-3-hydroxy-1,1-dioxido-2,3-dihydrobenzo[b]thiophen-5-yl)oxy)benzonitrile] is 880 nM; for `N#Cc1cc(Oc2ccc3c(c2C(F)F)[C@@H](O)C(F)(F)S3(=O)=O)ccc1F` [Compound 91, (R)-5-((4-(Difluoromethyl)-2,2-difluoro-3-hydroxy-1,1-dioxido-2,3-dihydrobenzo[b]thiophen-5-yl)oxy)-2-fluorobenzonitrile] it is 310 nM. Same read-out and setting: the figure for `O=S1(=O)c2ccc(Oc3cccc4cn[nH]c34)c(C(F)F)c2C(O)C1(F)F` (stereo not drawn) [Compound 95, 5-((1H-Indazol-7-yl)oxy)-4-(difluoromethyl)-2,2-difluoro-3-hydroxy-2,3-dihydrobenzo[b]thiophene 1,1-dioxide] is 6890 nM; for `CC1(O)c2c(ccc(Oc3cc(F)cc(C#N)c3)c2C#N)S(=O)(=O)C1(F)F` (stereo not drawn) [Compound 105, 5-(3-Cyano-5-fluorophenoxy)-2,2-difluoro-3-hydroxy-3-methyl-2,3-dihydrobenzo[b]thiophene-4-carbonitrile 1,1-dioxide] it is 48 nM; for `N#CC1(COc2ccc3c(c2C(F)F)C(O)C(F)(F)S3(=O)=O)CC1` (stereo not drawn) [Compound 109, 1-(((4-(difluoromethyl)-2,2-difluoro-3-hydroxy-1,1-dioxido-2,3-dihydrobenzo[b]thiophen-5-yl)oxy)methyl)cyclopropane-1-carbonitrile] it is 6700 nM.

Take `CC(C)Oc1ccc2c(c1C#N)C(C)(O)C(F)(F)S2(=O)=O` (stereo not drawn) [Compound 110, 2,2-Difluoro-3-hydroxy-5-isopropoxy-3-methyl-2,3-dihydrobenzo[b]thiophene-4-carbonitrile 1,1-dioxide]: the EC50 is 5400 nM.

Take `N[C@@H]1c2c(ccc(Oc3cc(F)cc(Br)c3)c2Br)S(=O)(=O)C1(F)F` [Compound 116, (R)-3-Amino-4-bromo-5-(3-bromo-5-fluorophenoxy)-2,2-difluoro-2,3-dihydrobenzo[b]thiophene 1,1-dioxide]: the concentration giving a half-maximal response (EC50) is 800 nM.

Still in this assay, the particulars now being: 24 h, read-out: Mean Luciferease EC50.
In the case of `O=S1(=O)CC(O)c2c1ccc(Oc1cc(F)cc(Cl)c1)c2Br` (stereo not drawn) [Compound 6, 4-Bromo-5-(3-chloro-5-fluorophenoxy)-3-hydroxy-2,3-dihydrobenzo[b]thiophene 1,1-dioxide], the concentration for a half-maximal effect (EC50) is 4850 nM. The same measure, in the same setting: the figure for `N#Cc1cc(F)cc(Oc2ccc3c(c2C(F)F)[C@H](O)C(F)(F)S3(=O)=O)c1` [Compound 34, (S)-3-((4-(Difluoromethyl)-2,2-difluoro-3-hydroxy-1,1-dioxido-2,3-dihydrobenzo[b]thiophen-5-yl)oxy)-5-fluorobenzonitrile] is 20 nM.

The record behind these values is patent US9884843B2 (Peloton Therapeutics, Inc., priority 2013, dated 2018).
